# In ChEMBL document CHEMBL1144280, “Inhibitors of type I MetAPs containing pyridine-2-carboxylic acid thiazol-2-ylamide. Part 1: SAR studies on the determination of the key scaffold” (Bioorg Med Chem Lett, 2005):
# How the values were obtained:
# [1] = target: T1, Methionine aminopeptidase (Escherichia coli K-12, UniProt P0AE18); assay: Inhibitory concentration against Escherichia coli methionine aminopeptidase 1
# T1 sequence (P0AE18 whole entry): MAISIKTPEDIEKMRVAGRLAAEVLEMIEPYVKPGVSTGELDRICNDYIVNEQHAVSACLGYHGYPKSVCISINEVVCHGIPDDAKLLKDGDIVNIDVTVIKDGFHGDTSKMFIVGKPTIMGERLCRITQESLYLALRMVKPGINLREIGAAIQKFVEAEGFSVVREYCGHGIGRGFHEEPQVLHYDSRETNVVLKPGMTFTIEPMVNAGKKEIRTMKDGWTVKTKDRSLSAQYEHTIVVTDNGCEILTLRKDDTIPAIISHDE
# [2] = target: T2, Methionine aminopeptidase 1 (Saccharomyces cerevisiae S288c, UniProt Q01662); assay: Inhibitory concentration against Saccharomyces cerevisiae methionine aminopeptidase 1
# T2 sequence (Q01662 whole entry): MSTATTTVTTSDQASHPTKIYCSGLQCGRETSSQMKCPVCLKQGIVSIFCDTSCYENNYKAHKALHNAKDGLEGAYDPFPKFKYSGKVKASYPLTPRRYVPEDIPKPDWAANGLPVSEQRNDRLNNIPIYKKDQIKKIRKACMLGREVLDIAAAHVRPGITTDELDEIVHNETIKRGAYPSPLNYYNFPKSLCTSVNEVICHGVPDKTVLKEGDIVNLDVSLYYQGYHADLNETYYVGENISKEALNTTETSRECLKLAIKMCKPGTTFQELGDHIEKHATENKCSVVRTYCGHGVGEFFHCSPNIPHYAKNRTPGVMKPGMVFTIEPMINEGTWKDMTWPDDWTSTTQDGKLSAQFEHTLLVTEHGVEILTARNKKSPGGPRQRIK
SMILES,IC50 [1],IC50 [2]
CC(C)(C)OC(=O)Nc1ccc(C(=O)Nc2nccs2)nc1,12.8 µM,62.9 µM
CCCCc1ccc(C(=O)Nc2nccs2)nc1,> 100 µM,> 100 µM
O=C(Nc1nccs1)c1cccc(C(=O)Nc2nccs2)n1,> 100 µM,> 100 µM
O=C(Nc1nccs1)c1ncccc1OCc1ccccc1,1.41 µM,0.77 µM
CC(=O)OCc1cccc(C(=O)Nc2nccs2)n1,> 100 µM,–
CC(C)=CCc1ccc(C(=O)Nc2nccs2)nc1,> 100 µM,> 100 µM

# Further lines, results first:
IC50 [1],IC50 [2],SMILES
2.32 µM,> 100 µM,O=C(Nc1nccs1)c1cc(NCc2ccccc2)ccn1
2.09 µM,2.43 µM,Nc1ccc(C(=O)Nc2nccs2)nc1
6.71 µM,> 100 µM,Nc1ccnc(C(=O)Nc2nccs2)c1
> 100 µM,> 100 µM,O=C(Nc1nccs1)c1cc(Cl)ccn1
–,> 100 µM,COc1ccnc(C(=O)Nc2nccs2)c1
4.51 µM,> 100 µM,O=C(Nc1nccs1)c1cc([N+](=O)[O-])ccn1
> 100 µM,> 100 µM,O=C(Nc1nccs1)c1cc(OCc2ccccc2)ccn1
1.98 µM,17 µM,CC(=O)Nc1ccnc(C(=O)Nc2nccs2)c1
